Experimental data: ChEMBL document CHEMBL1828564, “Design, synthesis and biological evaluation of novel 1,2,3,4-tetrahydroisoquinoline-3-carboxylic acid derivatives as aminopeptidase N/CD13 inhibitors” (Bioorg Med Chem, 2011); call rule not given here
Where a SMILES comes first, the peptide text is derived from it. [ ]: non-standard residue; d: D form. The star is where a group is joined. Hyp = O=C(O)[C@@H]1C[C@@H](O)CN1; Tic = O=C(O)[C@@H]1Cc2ccccc2CN1; Phg = N[C@H](C(=O)O)c1ccccc1; NHOH = ON*

Key:
[1] = molecular target: 72 kDa type IV collagenase (Homo sapiens, UniProt P08253); test: Inhibition of MMP2 after 30 mins
72 kDa type IV collagenase, sequence (P08253 whole entry): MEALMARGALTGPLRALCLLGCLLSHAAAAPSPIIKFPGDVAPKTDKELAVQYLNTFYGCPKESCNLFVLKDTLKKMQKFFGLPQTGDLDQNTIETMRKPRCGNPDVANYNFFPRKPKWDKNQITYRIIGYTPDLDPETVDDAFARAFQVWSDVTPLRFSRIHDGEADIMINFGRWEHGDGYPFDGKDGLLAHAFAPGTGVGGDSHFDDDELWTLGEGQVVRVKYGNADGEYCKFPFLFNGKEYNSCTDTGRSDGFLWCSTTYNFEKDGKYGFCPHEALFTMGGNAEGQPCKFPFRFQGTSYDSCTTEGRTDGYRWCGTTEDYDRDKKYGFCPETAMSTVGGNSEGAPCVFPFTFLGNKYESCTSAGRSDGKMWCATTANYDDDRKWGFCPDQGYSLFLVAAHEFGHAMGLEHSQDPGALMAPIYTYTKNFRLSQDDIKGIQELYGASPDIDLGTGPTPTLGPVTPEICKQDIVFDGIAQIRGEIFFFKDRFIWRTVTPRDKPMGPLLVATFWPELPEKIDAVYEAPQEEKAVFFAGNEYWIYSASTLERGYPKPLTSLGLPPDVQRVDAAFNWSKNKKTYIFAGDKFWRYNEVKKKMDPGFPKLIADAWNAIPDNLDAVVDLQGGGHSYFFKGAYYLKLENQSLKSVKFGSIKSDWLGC

[2] = molecular target: T1, Aminopeptidase N (Sus scrofa, UniProt P15145); test: Inhibition of pig kidney microsome aminopeptidase N using L-Leu-p-nitroanilide substrate
T1 sequence (P15145 whole entry): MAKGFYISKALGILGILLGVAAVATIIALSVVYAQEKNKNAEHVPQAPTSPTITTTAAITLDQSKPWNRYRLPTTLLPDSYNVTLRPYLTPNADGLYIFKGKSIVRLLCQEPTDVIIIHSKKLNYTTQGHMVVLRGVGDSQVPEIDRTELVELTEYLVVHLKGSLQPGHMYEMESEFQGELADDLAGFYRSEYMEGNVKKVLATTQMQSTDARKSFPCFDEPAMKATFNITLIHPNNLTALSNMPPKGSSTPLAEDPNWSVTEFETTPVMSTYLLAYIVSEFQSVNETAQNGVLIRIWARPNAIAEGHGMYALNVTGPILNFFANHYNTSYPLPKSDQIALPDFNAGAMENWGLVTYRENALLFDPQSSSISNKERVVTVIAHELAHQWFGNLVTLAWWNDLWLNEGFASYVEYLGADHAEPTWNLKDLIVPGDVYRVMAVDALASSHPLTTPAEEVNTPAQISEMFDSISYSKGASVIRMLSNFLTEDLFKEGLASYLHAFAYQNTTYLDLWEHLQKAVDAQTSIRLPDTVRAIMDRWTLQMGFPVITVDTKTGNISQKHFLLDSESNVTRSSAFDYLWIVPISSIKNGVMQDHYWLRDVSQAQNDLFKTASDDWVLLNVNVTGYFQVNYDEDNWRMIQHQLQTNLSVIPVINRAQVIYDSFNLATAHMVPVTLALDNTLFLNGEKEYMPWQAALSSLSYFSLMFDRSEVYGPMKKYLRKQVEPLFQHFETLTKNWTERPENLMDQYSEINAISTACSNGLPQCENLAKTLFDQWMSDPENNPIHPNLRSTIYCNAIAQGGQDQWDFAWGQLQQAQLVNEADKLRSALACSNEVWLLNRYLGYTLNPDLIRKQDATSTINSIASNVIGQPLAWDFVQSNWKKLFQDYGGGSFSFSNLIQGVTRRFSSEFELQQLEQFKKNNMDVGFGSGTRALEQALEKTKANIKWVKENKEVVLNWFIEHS

[3] = cells; conditions: Homo sapiens, ES-2, 48 h
Description: Antiproliferative activity against human ES2 cells after 48 hrs by MTT assay

[4] = system: MDA-MB-231; test: Antiproliferative activity against human MDA-MB-231 cells after 48 hrs by MTT assay; format: functional, cell-based; conditions: MDA-MB-231, 48 h
[5] = molecular target: Aminopeptidase N (Homo sapiens, UniProt P15144); test: Inhibition of aminopeptidase N in human ES2 cells assessed as L-Leu-p-nitroanilide hydrolysis; format: cell-based
Aminopeptidase N (Homo sapiens, UniProt P15144), sequence (P15144 whole entry): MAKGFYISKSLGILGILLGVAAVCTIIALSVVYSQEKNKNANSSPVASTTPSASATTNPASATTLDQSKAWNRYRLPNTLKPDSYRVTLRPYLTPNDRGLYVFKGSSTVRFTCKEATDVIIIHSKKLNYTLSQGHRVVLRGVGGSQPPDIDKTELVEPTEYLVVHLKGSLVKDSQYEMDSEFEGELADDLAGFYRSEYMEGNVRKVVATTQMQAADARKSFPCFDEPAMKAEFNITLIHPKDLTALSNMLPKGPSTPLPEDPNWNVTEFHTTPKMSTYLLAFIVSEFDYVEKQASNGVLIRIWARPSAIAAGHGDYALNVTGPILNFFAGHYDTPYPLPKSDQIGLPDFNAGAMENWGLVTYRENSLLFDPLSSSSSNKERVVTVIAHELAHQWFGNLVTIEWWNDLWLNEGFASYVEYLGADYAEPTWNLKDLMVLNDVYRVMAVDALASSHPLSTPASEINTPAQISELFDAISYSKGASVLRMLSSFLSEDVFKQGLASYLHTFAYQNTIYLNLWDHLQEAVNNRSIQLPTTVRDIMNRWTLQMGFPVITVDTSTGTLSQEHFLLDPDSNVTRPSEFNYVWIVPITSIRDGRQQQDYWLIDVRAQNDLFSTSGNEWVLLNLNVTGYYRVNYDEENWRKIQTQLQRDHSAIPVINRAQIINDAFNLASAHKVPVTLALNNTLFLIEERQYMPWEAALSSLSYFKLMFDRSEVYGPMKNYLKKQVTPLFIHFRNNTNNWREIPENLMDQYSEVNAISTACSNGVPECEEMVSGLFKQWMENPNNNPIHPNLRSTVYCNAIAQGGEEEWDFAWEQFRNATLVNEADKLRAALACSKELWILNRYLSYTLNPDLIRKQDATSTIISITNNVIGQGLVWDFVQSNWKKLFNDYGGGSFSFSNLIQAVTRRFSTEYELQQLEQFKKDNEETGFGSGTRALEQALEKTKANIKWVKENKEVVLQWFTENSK

SMILES | IC50 ([2]; read-out: IC50) [µM] | IC50 ([1]; read-out: IC50) [µM] | other results
O=C(CCCNC(=O)[C@@H]1Cc2ccccc2CN1)NO | 44.5 | 252 | –
Cl.O=C(N[C@@H](Cc1cc2ccccc2[nH]1)C(=O)NO)[C@@H]1Cc2ccccc2CN1 | 43.4 | – | IC50 [1]: Not Active
C[C@H](NC(=O)[C@@H]1Cc2ccccc2CN1)C(=O)NO (H-[Tic]-Ala-{NHOH}) | 83.8 | 463 | –
CC[C@H](C)[C@H](NC(=O)[C@@H]1Cc2ccccc2CN1)C(=O)NO.Cl (H-[Tic]-Ile-{NHOH}) | – | 672 | IC50 [2]: Not Active
CC(C)C[C@H](NC(=O)[C@H](CC(C)C)NC(=O)[C@@H]1Cc2ccccc2CN1)C(=O)NO.Cl (H-[Tic]-Leu-Leu-{NHOH}) | 481 | – | IC50 [1]: Not Active
CC(C)C[C@H](NC(=O)[C@@H]1Cc2ccccc2CN1)C(=O)N[C@@H](Cc1ccccc1)C(=O)NO (H-[Tic]-Leu-Phe-{NHOH}) | 465 | 657 | –
CC(C)C[C@H](NC(=O)[C@H](Cc1ccccc1)NC(=O)[C@@H]1Cc2ccccc2CN1)C(=O)NO.Cl (H-[Tic]-Phe-Leu-{NHOH}) | 555 | – | IC50 [1]: Not Active
Cl.O=C(N[C@@H](Cc1ccccc1)C(=O)N[C@@H](Cc1ccccc1)C(=O)NO)[C@@H]1Cc2ccccc2CN1 (H-[Tic]-Phe-Phe-{NHOH}) | 435 | – | IC50 [1]: Not Active
O=C(NO)[C@@H]1CCCN1C(=O)[C@@H]1Cc2ccccc2CN1 (H-[Tic]-Pro-{NHOH}) | 104 | 157 | –
O=C(N[C@@H](CO)C(=O)NO)[C@@H]1Cc2ccccc2CN1 (H-[Tic]-Ser-{NHOH}) | 40.2 | 268 | –
C[C@@H](O)[C@H](NC(=O)[C@@H]1Cc2ccccc2CN1)C(=O)NO (H-[Tic]-Thr-{NHOH}) | 46.6 | 201 | –
Cl.O=C(NO)[C@@H]1C[C@@H](O)CN1C(=O)[C@@H]1Cc2ccccc2CN1 (H-[Tic]-[Hyp]-{NHOH}) | – | 276 | IC50 [2]: Not Active
CC(C)C[C@H](NC(=O)[C@@H](O)[C@H](N)Cc1ccccc1)C(=O)O [UBENIMEX] | – | – | IC50 [3]: 142 µM; IC50 [4]: 753 µM

The remaining compounds from weak to strong by IC50 ([2]; read-out: IC50), led by results:

IC50 ([2]; read-out: IC50) [µM] | IC50 ([1]; read-out: IC50) [µM] | SMILES | other results
37.1 | 517 | O=C(CCNC(=O)[C@@H]1Cc2ccccc2CN1)NO | –
36.6 | 307 | CC(C)[C@H](NC(=O)[C@@H]1Cc2ccccc2CN1)C(=O)NO (H-[Tic]-Val-{NHOH}) | –
27.5 | 836 | CC(C)C[C@H](NC(=O)[C@@H]1Cc2ccccc2CN1)C(=O)NO (H-[Tic]-Leu-{NHOH}) | –
21.7 | 249 | O=C(CNC(=O)[C@@H]1Cc2ccccc2CN1)NO (H-[Tic]-Gly-{NHOH}) | –
20.4 | – | Cl.O=C(CN1C(=O)CC[C@H](NC(=O)[C@@H]2Cc3ccccc3CN2)C1=O)NO | IC50 [1]: Not Active
12.8 | 940 | O=C(N[C@@H](Cc1ccccc1)C(=O)NO)[C@@H]1Cc2ccccc2CN1 (H-[Tic]-Phe-{NHOH}) | –
9.39 | 540 | O=C(N[C@@H](Cc1ccc(O)cc1)C(=O)NO)[C@@H]1Cc2ccccc2CN1 (H-[Tic]-Tyr-{NHOH}) | –
8.77 | 166 | CSCC[C@H](NC(=O)[C@@H]1Cc2ccccc2CN1)C(=O)NO (H-[Tic]-Met-{NHOH}) | –
6.28 | 393 | O=C(N[C@H](C(=O)NO)c1ccccc1)[C@@H]1Cc2ccccc2CN1 (H-[Tic]-[Phg]-{NHOH}) | IC50 [3]: 174 µM; IC50 [4]: 591 µM; IC50 [5]: 32.7 µM; inhibition [5]: Dose-dependent effect
